Where no end group is shown, it is not given here. TAMRA = 5(6)-carboxytetramethylrhodamine
Assays:
[1] = system: human microvascular endothelial cells (HMVECs); test: xCELLigence chemotaxis assay (HMVEC migration); type: cell-based; conditions: EGF 10 ng/mL, FGF-2 30 ng/mL or VEGF165 10 ng/mL in lower chamber
Protocol: To evaluate the effect of the CXCL9-derived peptides on growth factor-induced endothelial cell migration, the xCELLigence® real-time cell analyzer (RTCA DP) system (ACEA Biosciences, Inc.; San Diego, CA, USA) was used. First, 160 µL MCDB131 medium (Gibco) supplemented with 0.4% (v/v) FCS (control medium) or 160 µL control medium with 30 ng/mL FGF-2, 10 ng/mL VEGF165 or 10 ng/mL EGF were added to the lower chamber of a cell invasion/migration (CIM)-Plate (ACEA Biosciences, Inc.). After assembly of the lower and upper chamber, 50 µL of serum-free MCDB131 medium was added in the upper wells. Following equilibration of the plate at 37 °C for 1 h, HMVECs were added in the upper chamber at 4 × 10^4 cells in 100 µL/well. CXCL9(74-103) or CXCL9(86-103) was added together with the cells in the upper compartment at a concentration of 0.3 or 3 µM. The assembled CIM-Plate was left at room temperature for 30 min to allow the cells to settle onto the membrane. Finally, the plate was placed in the instrument at 37 °C to monitor cell migration for 15 h. Cell migration from one compartment to the other was recorded (one recording every minute) as changes in electrical impedance. These changes were converted into cell indices, as a measure of cell migration.

[2] = system: human microvascular endothelial cells (HMVECs); test: Endothelial cell proliferation assay (MTT or ATP lite); type: cell-based; conditions: EGF, VEGF165 5 ng/mL or FGF-2 3 ng/mL as single stimulus
Protocol: The ability of the CXCL9-derived peptides to inhibit growth factor-induced proliferation of endothelial cells was assessed. HMVECs were seeded at 5 × 10^3 cells/well in EBM™-2 medium containing 1% (v/v) FCS (proliferation medium). After settling of the cells, they were stimulated with EGF, VEGF165 (both 5 ng/mL) or FGF-2 (3 ng/mL) as a single stimulus or in combination with CXCL9(86-103) or CXCL9(74-103) at 0.3 or 3 µM in proliferation medium or left untreated. HMVECs were also treated with 0.3 or 3 µM of CXCL9(74-103) or 3 µM of CXCL9(86-103) alone to assess the effect of CXCL9-derived peptide treatment on spontaneous proliferation. After 3 to 4 days, a 3-(4,5-dimethylthiazol-2-yl)-2,5-diphenyl tetrazolium bromide (MTT) or ATP lite assay was performed. The ATP lite assay was performed according to the manufacturer’s instructions (Perkin Elmer, Waltham, MA). When MTT was used as substrate, the medium was replaced with 200 µL of MTT solution (RPMI without phenol red containing 0.4 g/L MTT) and the cells were incubated at 37 °C and 5% CO2 in the dark for 4 hours. Then, the MTT solution was discarded and the formed formazan crystals were dissolved in 200 µL acidic propanol [0.04 M HCl, 0.1% (v/v) NP-40 in isopropanol] under continuous shaking in the dark for 10 min. The optical densities were measured at 570 nm and 630 nm (reference wavelength).

phospho-ERK1/2 = test: Signal transduction assay, EGF-induced ERK phosphorylation in HMVECs (ELISA); type: cell-based, human; conditions: EGF 10 ng/mL, 15 min, compared to control (100%), n ≥ 3
Protocol: HMVECs and MECs were seeded in 6-well plates at 1.25 × 10^5 cells/well in their respective culture medium. Once the cell density reached 70–80% confluency, the cells were starved in serum-free medium overnight. Fifteen minutes prior to stimulation, cells were incubated with various concentrations of CXCL9(74-103) or CXCL9(86-103) in 0.5% (v/v) BSA in MCDB131 or DMEM medium (assay medium for HMVECs and MECs, respectively) at 37 °C. HMVECs and MECs were stimulated with assay medium alone or supplemented with 10 ng/mL EGF or 5 ng/mL murine VEGF165 at 37 °C for 15 or 5 min, respectively. Then, the cells were placed on ice, washed with ice-cold PBS and 90 µL of lysis buffer [1% (v/v) protease inhibitor cocktail, phosphatase inhibitor cocktail 2 and 3 (all Sigma-Aldrich) in 1 mM ethylenediaminetetraacetic acid (EDTA), 0.5% (v/v) Triton™ X-100, 5 mM NaF, 6 M urea in PBS] was added per well. […] The amount of phospho-ERK1/2 in the cell lysates was determined using an ERK1 (Thr202/Tyr204)/ERK2 (Thr185/Tyr187) ELISA duoset (R&D Systems) according to the manufacturer’s instructions. The amount of phosphorylated ERK was normalized to the total protein content in the samples measured by the Pierce™ bicinchoninic acid (BCA) protein assay kit (Thermo Fisher Scientific).

[3] = system: FGF-2-induced angiogenesis, C57BL/6 mice; test: In vivo angiogenesis Matrigel plug assay; set-up: species or system mouse; conditions: 180 ng FGF-2 alone, day 7
Protocol: Six-to-eight-week-old female C57BL/6 mice were anesthetized with a mixture of 2.5 mg/mL xylazine (V.M.D, Inovet, Arendonk, Belgium) and 37.5 mg/mL ketamine (Dechra, Northwich, UK) in PBS by i.p. injection. A vertical dorsal incision was made and an ALZET osmotic pump (model 1007D, DURECT Corporation, Cupertine, CA, USA) filled with 400 µg/100 µL CXCL9(74-103) or 100 µL PBS was subcutaneously (s.c.) implanted. The incision was closed with a surgical suture. Growth factor-reduced Matrigel (Corning Matrigel Growth Factor (GFR) Basement Membrane Matrix, Phenol Red-Free, LDEV-Free; Corning Life Sciences, Amsterdam, The Netherlands) was s.c. injected in the dorsal flank forming a firm plug (600 µL/plug). The Matrigel was either injected as such (control plugs) or supplemented with 300 µg CXCL9(74-103) and/or 180 ng FGF-2. Seven days later, the mice were sacrificed. Thirty minutes before sacrifice, the mice were i.v. injected with 200 µL (25 mg/kg) FITC-labeled 2000 kDa dextran (Sigma-Aldrich) to quantify vessel formation in the Matrigel plugs. Blood was collected through cardiac puncture into heparinized tubes containing 20 µL heparin (5.000 IE/mL, Leo Pharma, Ballerup, Denmark). The blood was centrifuged at 200 g and 4 °C for 10 min, whereafter the supernatant was centrifuged at 3000 g and 4 °C for 10 min. The collected plasma was stored away from light at 4 °C until analysis. The Matrigel plugs were removed and enzymatically and mechanically digested in 1.2 mL dispase (Corning Life Sciences) using an incubation at 37 °C for 1.5 h and the gentleMACS™ Dissociator (Miltenyi Biotec, Bergisch Gladbach, Germany). The digested Matrigel plugs were filtered through a 70 µm cell strainer, washed with 1.5 mL FACS buffer [2% (v/v) FCS + 2 mM EDTA in PBS] and centrifuged at 300 g and 4 °C for 7 min. The supernatant (SN) was centrifuged again at 300 g and 4 °C for 7 min and the SN was retained away from light at 4 °C until analysis. The pellet was resuspended in 1 mL FACS buffer, the cells were counted and used for flow cytometry. The antibodies used to identify endothelial cells were anti-mouse CD45-APC (clone 30-F11, eBioscience, Thermo Fisher Scientific), anti-mouse CD146-PE (clone ME-9F1) and anti-mouse Pan-endothelial Cell Antigen-BV711 (clone MECA-32) antibodies (both BD Biosciences). Mice experiments were approved by the Ethical Committee of KU Leuven (project number P199/2018).

HMVEC spheroids = test: Spheroid sprouting assay; type: cell-based, human; conditions: FGF-2 10 ng/mL, 16 hours
Protocol: A 1:5 mixture of endothelial cells (4 × 10^4 cells/mL) and methylcellulose (Sigma-Aldrich, Saint Louis, MO, USA; 12 mg/mL in EBM™-2 basal medium) in EBM™-2 cell culture medium was prepared. Drops of 1 × 10^3 HMVECs were plated on a petri dish and allowed to form single spheroids in hanging droplets at 37 °C, 5% CO2 for 24 h. Spheroids were collected, sedimented by centrifugation and resuspended in a mixture of 24 mg/mL methylcellulose in basal EBM™-2, 1 mg/mL collagen type I (BD Biosciences, San Jose, CA, USA), 2.5 mg/mL NaHCO3 and 10 mM NaOH. The suspension was plated in a 96-well plate and the collagen was allowed to polymerize at 37 °C, 5% CO2 for 30 min. Spheroids were left untreated or stimulated with 0.3 or 3 µM of CXCL9(74-103) or 3 µM of CXCL9(86-103) for 15 min prior to addition of 10 ng/mL FGF-2 or 10 ng/mL EGF in EBM™-2 + 3% (v/v) FCS. In some experiments, HMVECs were pretreated with heparinase II (vide infra). After 16 hours, spheroid sprouting was assessed with an inverted Axiovert 200M microscope (Zeiss, Germany) through a 10× objective. The average number of sprouts was calculated and the average sprout length per spheroid was measured using Fiji software.
Sprouting experiments examining the dependency on HS binding for the inhibitory action of CXCL9(74-103) were performed as described above (vide supra). […]

[4] = system: cell surface HS on HMVECs; test: Cellular HS binding of TAMRA-labeled CXCL9(74-103), flow cytometry; set-up: species or system human; conditions: 1 representative of 3 experiments
Protocol: CXCL9(74-103) binding to cellular HS was assessed via flow cytometry. HMVECs were either left untreated or incubated with 0.75 U/mL heparinase II (Sigma-Aldrich) at 37 °C for 2 h. Cells were harvested and left at room temperature for 1 h to recuperate, they were then placed on ice and centrifuged. After centrifugation (300 g, 4 °C, 7 min) and resuspension in PBS, 1 × 10^5 cells per condition were stained with 3, 0.6 or 0.12 nM TAMRA-labeled CXCL9(74-103). To verify downregulation of HS expression, cells were stained with mouse anti-HS Ab (clone F58-10E4, Cat No 370255-S; Amsbio, Abingdon, UK) and R-PE goat anti-mouse IgM Ab (Cat No 115-116-075; Jackson ImmunoResearch, Westgrove, PA, USA). Flow cytometric analysis was performed using the BD LSRFortessa™ X-20 flow cytometer and FlowJo software (both BD Biosciences).

Substance | enhancement of migration by growth factor alone [1] | enhancement of proliferation by growth factor alone [2] | phospho-ERK content (phospho-ERK1/2) | CD146+MECA-32+ cell population, FGF-2 compared to control [3] | fluorescence ratio, FGF-2 plug compared to control [3] | number of cells inside plug, FGF-2 compared to control [3] | sprouting in response to FGF-2 alone (HMVEC spheroids) | binding to untreated HMVECs ([4]; 3, 0.6 or 0.12 nM TAMRA-labeled peptide) | binding to heparinase II-treated HMVECs ([4]; heparinase II 0.75 U/mL, 37 °C, 2 h, 3, 0.6 or 0.12 nM)
EGF: human recombinant EGF (R&D Systems), stimulus | significant enhancement of endothelial cell migration | significant enhancement of proliferation | 247% |  |  |  |  |  | 
FGF-2: human recombinant FGF-2 (R&D Systems), stimulus | significant enhancement of endothelial cell migration | significant enhancement of proliferation |  | ~3 fold | doubled the fluorescence ratio compared to the control | ~3 fold | pronounced endothelial sprouting |  | 
TAMRA-labeled CXCL9(74-103): CXCL9(74-103) fluorescently labeled at the NH2-terminus with 5(6)-carboxytetramethylrhodamine ({TAMRA}-KKKQKNGKKHQKKKVLKVRKSQRSRQKKTT; UniProt Q07325 96-125, looked up, fragment) |  |  |  |  |  |  |  | bound CXCL9(74-103) in a concentration-dependent manner | bound CXCL9(74-103) less efficiently compared to cells with intact HS

Reference: article PMC8534003, “The Chemokine-Based Peptide, CXCL9(74-103), Inhibits Angiogenesis by Blocking Heparan Sulfate Proteoglycan-Mediated Signaling of Multiple Endothelial Growth Factors” (Cancers, 2021)
